# Source: the Deep4Chem optical property database
# Assay: solvent given as SMILES
compound,measurement,setting,value
COc1ccc2c(c1)CCc1c-2nc(N)c(C#N)c1-c1ccc(Br)cc1,absorption maximum,in C1CCOC1,362 nm
same,absorption maximum,in C1COCCO1,366 nm
same,absorption maximum,in CC#N,364 nm
same,absorption maximum,in CCCCCC,360 nm
same,absorption maximum,in CCO,370 nm
same,absorption maximum,in CN(C)C=O,375 nm
same,absorption maximum,in CO,371 nm
same,absorption maximum,in CS(C)=O,379 nm
same,absorption maximum,in ClC(Cl)Cl,368 nm
same,absorption maximum,in ClCCl,365 nm
CC(C)(C)c1ccc2c(c1)c1cc(C(C)(C)C)ccc1n2-c1cccc2c1Oc1c(-c3nc(-c4ccccc4)nc(-c4ccccc4)n3)cccc1C2(C)C,absorption maximum,in Cc1ccccc1,346 nm
c1ccc2c(-c3cc4c(ccc5sccc54)s3)cccc2c1,absorption maximum,in ClCCl,307 nm
Clc1ncc(-c2c3ccccc3c(-c3cnc(Cl)nc3)c3ccccc23)cn1,absorption maximum,in CCO,394 nm
same,absorption maximum,in ClCCl,396 nm
COc1ccc(C2=[N+]3C(=Nc4c5c6ccccc6c6ccc(C(C)(C)C)cc6c5c(-c5ccc(OC)cc5)n4[B-]3(F)F)c3c2c2cc(C(C)(C)C)ccc2c2ccccc32)cc1,absorption maximum,in Cc1ccccc1,716 nm
CCOC(=O)/C=C/C1=C(c2ccc(C)cc2)C2=Nc3c(-c4ccc(C)cc4)c(Br)c(-c4ccc(C)cc4)n3[B-](F)(F)[N+]2=C1c1ccc(C)cc1,absorption maximum,in ClC(Cl)Cl,666 nm
Cc1ccc(-c2ccccc2)cc1,absorption maximum,in C1CCCCC1,257.4 nm
Cn1c(=O)c(/N=N/c2ccc(/N=N/c3ccc(S(=O)(=O)O)cc3)cc2)c(O)c2ccccc21,absorption maximum,in C1CCOC1,454 nm
same,absorption maximum,in CC(C)=O,453 nm
same,absorption maximum,in CCOC(C)=O,452 nm
same,absorption maximum,in CO,452 nm
same,absorption maximum,in CS(C)=O,460 nm
same,absorption maximum,in Cc1ccccc1,458 nm
same,absorption maximum,in ClCCl,457 nm
same,absorption maximum,in O,447 nm
CSc1sc(C(C)=O)c2nn[nH]c(=O)c12,absorption maximum,in C1CCOC1,392.5 nm
same,absorption maximum,in CC#N,393 nm
same,absorption maximum,in CCO,397 nm
same,absorption maximum,in CN(C)C=O,404 nm
same,absorption maximum,in CO,396 nm
same,absorption maximum,in CS(C)=O,400.5 nm
COc1cc(/C=C2/SC(=O)NC2=O)cc(OC)c1O,absorption maximum,in C1CCCCC1,354 nm
same,absorption maximum,in C1COCCO1,367 nm
same,absorption maximum,in CC#N,362 nm
same,absorption maximum,in CN(C)C=O,341 nm
same,absorption maximum,in CO,359 nm
same,absorption maximum,in O,358 nm
same,absorption maximum,in OCC(O)CO,364 nm
same,absorption maximum,in OCCO,370 nm
Cc1ccc(/C=C/C(F)(F)F)c(N)c1,absorption maximum,in C1CCOC1,346 nm
N#Cc1ccc(/C=C2\N=C(c3ccccc3)OC2=O)cc1,absorption maximum,in C1COCCO1,369 nm
Cc1ccc(CN2/C(=C/C=C3\CCCC(/C=C/C4=[N+](Cc5ccc(C)cc5)c5ccccc5C4(C)C)=C3Cl)C(C)(C)c3ccccc32)cc1,absorption maximum,in CO,785 nm
Nc1nc2c(ncn2[C@H]2C[C@H](O)[C@@H](CO)O2)c(=O)[nH]1,absorption maximum,in O,274 nm
Cc1cc(C)cc(C)c1,absorption maximum,in C1CCCCC1,261.57 nm
c1ccc2c(c1)-c1ccccc1C21c2ccccc2-c2cccnc21,absorption maximum,in CC1CCCO1,313 nm
COc1ccc2cc(/C=C/c3nc(/C=C/c4ccc(N(c5ccccc5)c5ccccc5)cc4)cc(/C=C/c4ccc(N(c5ccccc5)c5ccccc5)cc4)n3)ccc2c1,absorption maximum,in ClCCl,424 nm
CC(C)(C)c1cc2c(c(C(C)(C)C)c1)O[B-]1(c3ccc([B-]45OC(c6ccccc6)=N[N+]4=Cc4cc(C(C)(C)C)cc(C(C)(C)C)c4O5)cc3)OC(c3ccccc3)=N[N+]1=C2 (configuration not stated),absorption maximum,in C1CCOC1,455 nm
CC(=O)Nc1ccc(C2=C/C(=C\c3ccc([N+](=O)[O-])cc3)C(=O)O2)cc1,absorption maximum,in C1COCCO1,438 nm
Cc1cccc(C2=Cc3ccc4ccccc4[n+]3[B-](F)(F)O2)c1,absorption maximum,in ClC(Cl)Cl,429 nm
CC1=C[C@]2(C)C(=C3C(=C4C(C)=C(c5ccc(-c6nc(-c7ccccc7)c(-c7ccccc7)[nH]6)cc5)S[C@]42C)C(F)(F)C(F)(F)C3(F)F)S1,absorption maximum,in C1CCOC1,505 nm
CCN(CC)c1ccc2c(-c3ccc(S(=O)(=O)O)cc3S(=O)(=O)[O-])c3ccc(=[N+](CC)CC)cc-3oc2c1,absorption maximum,in CC#N,551 nm
same,absorption maximum,in CCO,556 nm
same,absorption maximum,in CN(C)C=O,554 nm
same,absorption maximum,in O,554 nm
c1ccc(-n2nc(-c3ccc(-c4ccc5c(c4)C(c4ccccc4)(c4ccccc4)c4ccccc4-5)cc3)nc2-c2ccccn2)cc1,absorption maximum,in ClCCl,323 nm
Cc1ccc(S(=O)(=O)/N=c2\oc3cccc4c5c(-c6ccccc6)oc6cccc(c(c2-c2ccccc2)c34)c65)cc1,absorption maximum,in ClC(Cl)Cl,445 nm
CCCCC(CC)Cn1c2cc(C#N)ccc2c2ccc(C#Cc3ccc4ccc5c(C#Cc6ccc7c8ccc(C#N)cc8n(CC(CC)CCCC)c7c6)ccc6ccc3c4c65)cc21 (configuration not stated),absorption maximum,in ClCCl,385 nm
COc1ccc2c3cccc4c(OC)ccc(c5cccc1c52)c43,absorption maximum,in C1CCOC1,458 nm
same,absorption maximum,in Cc1ccccc1,459 nm
same,absorption maximum,in ClC(Cl)(Cl)Cl,460 nm
same,absorption maximum,in ClC(Cl)Cl,459 nm
same,absorption maximum,in ClCCl,459 nm
same,absorption maximum,in c1ccncc1,463 nm
C(=C\c1ccc2ccccc2c1)/c1ccc(N(c2ccccc2)c2ccccc2)cc1,absorption maximum,in CC#N,371 nm
same,absorption maximum,in CCCCCC,371 nm
CCCCCCN1C(=O)c2cccc3c(-c4ccc(-c5cc(-c6ccc(Cl)cc6)n(-c6ccccc6)n5)s4)ccc(c23)C1=O,absorption maximum,in ClCCl,402 nm
N#Cc1cc2ccc([O-])cc2oc1=O,absorption maximum,in O,408 nm
C[Si]1(C)c2ccc(C#Cc3ccccc3)cc2C=Cc2cc(C#Cc3ccccc3)ccc21,absorption maximum,in ClCCl,346 nm
CCOC(=O)CN(CC(=O)OCC)c1ccc(-c2cc(-c3ccncc3)nc(-c3ccncc3)c2)cc1,absorption maximum,in CC#N,334 nm
same,absorption maximum,in CCOC(C)=O,334 nm
same,absorption maximum,in CN(C)C=O,342 nm
same,absorption maximum,in CS(C)=O,344 nm
same,absorption maximum,in c1ccccc1,332 nm
COc1ccc2cc(C#CC3=C4CCc5ccccc5C4=[O+][B-](F)(F)O3)ccc2c1,absorption maximum,in ClCCl,457 nm
CCCCCCN1C(=O)C(c2ccc(-n3c4ccccc4c4ccccc43)cc2)=C(c2ccc(-n3c4ccccc4c4ccccc43)cc2)C1=O,absorption maximum,in ClC(Cl)Cl,421 nm
same,absorption maximum,in c1ccc2c(c1)c1ccccc1n2-c1ccc(-c2ccc(-n3c4ccccc4c4ccccc43)cc2)cc1,426 nm
CCOC(=O)c1c(-c2cc3ccc(OC)cc3oc2=O)nn(-c2cccc(C)c2)c1C(=O)OCC,absorption maximum,in ClCCl,337 nm
FC(F)(F)C(F)(F)C(F)(F)C1=NC2=C(c3ccc4ccc5cccc6ccc3c4c56)C=C3c4cc(-c5ccc6ccc7cccc8ccc5c6c78)c5nc(C(F)(F)C(F)(F)C(F)(F)F)nc6c(-c7ccc8ccc9cccc%10ccc7c8c9%10)cc(c4c56)=C4C=C(c5ccc6ccc7cccc8ccc5c6c78)C(=N1)C2C34 (configuration not stated),absorption maximum,in C1CCOC1,524 nm
same,absorption maximum,in Cc1ccccc1,560 nm
CCCCCCOc1cc(/C=C/c2cc(OCCCCCC)c(/C=C/c3cc(OCCCCCC)c(/C=C4\C(=O)c5ccccc5C4=C(C#N)C#N)cc3OCCCCCC)cc2OCCCCCC)c(OCCCCCC)cc1/C=C1\C(=O)c2ccccc2C1=C(C#N)C#N,absorption maximum,in ClCCl,611 nm
CCCCN(CCCC)c1ccc(/C=C/c2ccc(-c3ccc(/C=C/c4ccc(N(CCCC)CCCC)cc4)cc3)cc2)cc1,absorption maximum,in CS(C)=O,412.9 nm
same,absorption maximum,in Cc1ccccc1,399.3 nm
COc1c(C(C)=O)c(=O)oc2cc(N(C)C)ccc12,absorption maximum,in ClCCl,373 nm
CCCCCCCCCCCCN1C(=O)c2c(c3ccc4cc(-c5ccc(C)cc5)c(OC)cc4c3c3c2ccc2cc(-c4ccc(C)cc4)c(OC)cc23)C1=O,absorption maximum,in ClCCl,436 nm
CC(C)c1cccc(C(C)C)c1N1C(=O)c2ccc3c(-c4ccc(C(=O)O)cc4)c4c5ccc6c7c(ccc(c(-c8ccc(C(=O)O)cc8)c4c4ccc(c2c34)C1=O)c75)C(=O)N(c1c(C(C)C)cccc1C(C)C)C6=O,absorption maximum,in ClCCl,622 nm
CN(C)c1ccc(/C=C/c2cnccn2)cc1,absorption maximum,in ClCCl,389 nm
c1ccc2c(c1)Cc1c-2sc2c1Cc1ccccc1-2,absorption maximum,in C1CCOC1,354 nm
CN(C)c1ccc(C2=CC3=C(c4ccc([N+](=O)[O-])cc4)[C@H]4c5ccccc5[C@]3(S2)c2ccccc24)cc1,absorption maximum,in ClCCl,484 nm
CC1(C)C(/C=C/C=C/C=C/C=C2\N(CCCCS(=O)(=O)[O-])c3ccc4ccccc4c3C2(C)C)=[N+](CCCCS(=O)(=O)[O-])c2ccc3ccccc3c21,absorption maximum,in O,780 nm
[NH3+]c1ccc2ccc(O)cc2c1,absorption maximum,in O,328 nm
COc1ccc2c(c1)SCC1=C(c3ccccc3)C3=Nc4c(-c5ccccc5)c5c(n4[B-](F)(F)[N+]3=C12)-c1ccc(OC)cc1SC5,absorption maximum,in ClC(Cl)Cl,706 nm
CCCCCCCCCCCCN1C(=O)c2cccc3c(N(Cc4ccccn4)Cc4ccccn4)c4ccccc4c(c23)C1=O,absorption maximum,in C1CCOC1,497 nm
same,absorption maximum,in CCCCCC,480 nm
same,absorption maximum,in CCO,488 nm
same,absorption maximum,in Cc1ccccc1,492 nm
same,absorption maximum,in ClCCl,500 nm
Cc1cc(O)c(C(=O)/C=C/c2ccc(Cl)cc2)c(=O)o1,absorption maximum,in CC#N,357 nm
same,absorption maximum,in ClCCl,360 nm
N#CC(C#N)=Cc1ccc2c(c1)[nH]c1c3ccccc3ccc21,absorption maximum,in ClCCl,436 nm
COc1cccc(C2=CC3=C(c4c(C)cc(C)cc4C)c4cc(-c5cccc(OC)c5)c(-c5cccc(OC)c5)n4[B-](F)(F)[N+]3=C2c2cccc(OC)c2)c1,absorption maximum,in C1CCCCC1,596 nm
same,absorption maximum,in C1CCOC1,592 nm
same,absorption maximum,in CC#N,581 nm
same,absorption maximum,in Cc1ccccc1,596 nm
same,absorption maximum,in ClCCl,588 nm
CC1(C)C(=O)C=Cc2ccc(O)cc21,absorption maximum,in O,341 nm
Clc1cc(Cl)c([C](c2c(Cl)cc(Cl)cc2Cl)c2c(Cl)cc(-n3c4ccccc4c4ccccc43)cc2Cl)c(Cl)c1,absorption maximum,in ClC(Cl)Cl,598 nm
COc1cc2c(cc1OC)C1=C[C@H](c3ccc(Cl)cc3)C3(C(C#N)=C(C#N)N1CC2)c1cc(Cl)ccc1-c1ccc(Cl)cc13,absorption maximum,in ClCCl,314 nm
COC(=O)C(NC(=O)OC(C)(C)C)c1ccc2oc(-c3ccc(OC(=O)c4ccccc4)cc3OC(=O)c3ccccc3)nc2c1 (configuration not stated),absorption maximum,in CC1CCCCC1,323 nm
same,absorption maximum,in CC#N,306 nm
same,absorption maximum,in CO,306 nm
C1=C(c2ccc(-c3cccs3)s2)CCC1,absorption maximum,in C1CCOC1,345 nm
same,absorption maximum,in CC#N,342 nm
same,absorption maximum,in CCCCCC,341 nm
same,absorption maximum,in CCO,341 nm
same,absorption maximum,in OCCOCCO,347 nm
same,absorption maximum,in c1ccncc1,348 nm
CCCCCc1c(C(=O)c2ccc3c4c(cccc24)-c2cccc4c2C3CC=C4)c2ccc3cccc4c5cccc6ccc1c(c65)c2c34 (configuration not stated),absorption maximum,in ClCCl,470 nm
